The results in this text go back to PMC10385579, “Design, Synthesis, and Biological Evaluation of Indole-2-carboxamides as Potential Multi-Target Antiproliferative Agents” (Pharmaceuticals, 2023).

Series [1] in a line: Cell viability assay (MTT) on MCF-10A. The settings on record: human, MCF-10A mammary gland epithelial cells, MCF-10A cells, four days. It counts as cell-based. As to the method: To assess the viability of compounds IV and Va–i, the human mammary gland epithelial (MCF-10A) cell line was exploited. Compounds IV and Va–i were cultured for four days on MCF-10A cells before being evaluated for vitality using the MTT assay.
To test the viability of the new compounds, the human mammary gland epithelial (MCF-10A) cell line was used. Compounds IV and Va–i were incubated on MCF-10A cells for four days before being tested for viability using the MTT assay. See Supplementary Materials.
4.2. Biological evaluation
4.2.1. Cytotoxic activity using MTT Assay and evaluation of IC50
MTT assay was performed to investigate the effect of the synthesized compounds on mammary epithelial cells (MCF-10A). The cells were propagated in medium consisting of Ham's F-12 medium/ Dulbecco's modified Eagle's medium (DMEM) (1:1) supplemented with 10% foetal calf serum, 2 mM glutamine, insulin (10 μg/mL), hydrocortisone (500 ng/mL) and epidermal growth factor (20 ng/mL). Trypsin ethylenediamine tetra acetic acid (EDTA) was used to passage the cells after every 2-3 days. 96-well flat-bottomed cell culture plates were used to seed the cells at a density of 10^4 cells mL-1. The medium was aspirated from all the wells of culture plates after 24 h followed by the addition of synthesized compounds (in 200 μL medium to yield a final concentration of 0.1% (v/v) dimethyl sulfoxide) into individual wells of the plates. Four wells were designated to a single compound. The plates were allowed to incubate at 37°C for 96 h. Afterwards, the medium was aspirated and 3-[4,5-dimethylthiazol-2-yl]-2,5-diphenyltetrazolium bromide (MTT) (0.4 mg/mL) in medium was added to each well and subsequently incubated for 3 h. The medium was aspirated and 150 μL dimethyl sulfoxide (DMSO) was added to each well. The plates were vortexed followed by the measurement of absorbance at 540 nm on a microplate reader. The results were presented as inhibition (%) of proliferation in contrast to controls comprising 0.1%

The test system of series [2] is four human cancer cell lines (A-549, MCF-7, Panc-1, HT-29). The series is described as follows: Antiproliferative assay, average over the four cancer cell lines (GI50). It counts as cell-based. The settings on record: average of the four cancer cell lines. Here is the method: See Supplementary Materials.
(§1) 4.2.1.2. Assay for antiproliferative effect
To explore the antiproliferative potential of compounds propidium iodide fluorescence assay was performed using different cell lines such as Panc-1 (pancreas cancer cell line), MCF-7 (breast […]
(§2) To calculate the total nuclear DNA, a fluorescent dye (propidium iodide, PI) is used which can attach to the DNA, thus offering a quick and precise technique. PI cannot pass through the cell membrane and its signal intensity can be considered as directly proportional to quantity of cellular
DNA. Cells whose cell membranes are damaged or have changed permeability are counted as dead ones. The assay was performed by seeding the cells of different cell lines at a density of 3000- […]
(§3) The medium was removed; the compounds were added to the plates at 10 μM concentrations (in 0.1% DMSO) in triplicates, followed by incubation for 48h. DMSO (0.1%) was used as control. After incubation, medium was removed followed by the addition of PI (25 μl, 50μg/mL in water/medium) to each well of the plates. At - 80 °C, the plates were allowed to freeze for 24 h, followed by thawing at 25 °C. A fluorometer (Polar-Star BMG Tech) was used to record the readings at excitation and emission wavelengths of 530 and 620 nm for each well. The percentage cytotoxicity of compounds was calculated using […]
Where ATC= Absorbance of treated cells and AC= Absorbance of control. […]
positive control in the assay.

Series [3] has as its system colon cancer (HT-29) cell line. Nature of the series: Antiproliferative assay, HT-29. The series is classed as cell-based. The conditions noted are these: Homo sapiens, read-out: Antiproliferative Activity IC50 ± SEM, HT-29. As to the method:
as §1
(§4) To explore the antiproliferative potential of compounds propidium iodide fluorescence assay was performed using different cell lines such as Panc-1 (pancreas cancer cell line), MCF-7 (breast cancer cell line), HT-29 (colon cancer cell line) and A-549 (epithelial cancer cell line), respectively.
as §2
as §3, with “DNA. Cells whose cell membranes are damaged or have changed permeability are counted as dead ones. The assay was performed by seeding the cells of different cell lines at a density of 3000-7500 cells/well (in200μl medium) in culture plates followed by incubation for 24h at 37 °C in humidified 5%CO2/95% air atmospheric conditions. The medium” for “The medium”
(§5) Where ATC= Absorbance of treated cells and AC= Absorbance of control. Erlotinib was used as positive control in the assay.

The subject of series [4] is human epithelial (A-549) cancer cell line. The series is described as follows: Antiproliferative assay, A-549. The series is classed as cell-based. The conditions noted are these: A549, read-out: Antiproliferative Activity IC50 ± SEM, A-549. Here is the method:
as §1, §4, §2
as §3, with “DNA. Cells whose cell membranes are damaged or have changed permeability are counted as dead ones. The assay was performed by seeding the cells of different cell lines at a density of 3000-7500 cells/well (in200μl medium) in culture plates followed by incubation for 24h at 37 °C in humidified 5%CO2/95% air atmospheric conditions. The medium” for “The medium”
as §5

Series [5] deals with pancreatic cancer (Panc-1) cell line. The series is described as follows: Antiproliferative assay, Panc-1. The series is classed as cell-based. The settings on record: Homo sapiens, read-out: Antiproliferative Activity IC50 ± SEM, Panc-1. Here is the method: as §1, §4, §2
as §3, with “DNA. Cells whose cell membranes are damaged or have changed permeability are counted as dead ones. The assay was performed by seeding the cells of different cell lines at a density of 3000-7500 cells/well (in200μl medium) in culture plates followed by incubation for 24h at 37 °C in humidified 5%CO2/95% air atmospheric conditions. The medium” for “The medium”
as §5

The test system of series [6] is breast cancer (MCF-7) cell line. Nature of the series: Antiproliferative assay, MCF-7. It counts as cell-based. The settings on record: Homo sapiens, MCF7; read-out: Antiproliferative Activity IC50 ± SEM, MCF-7. Here is the method: as §1, §4, §2
as §3, with “DNA. Cells whose cell membranes are damaged or have changed permeability are counted as dead ones. The assay was performed by seeding the cells of different cell lines at a density of 3000-7500 cells/well (in200μl medium) in culture plates followed by incubation for 24h at 37 °C in humidified 5%CO2/95% air atmospheric conditions. The medium” for “The medium”
as §5

Regarding `NCC(c1ccccc1)c1c(-c2ccccc2)[nH]c2ccccc12` (stereo not drawn) [Compound IV, 2-phenyl-2-(2-phenyl-1H-indol-3-yl)ethan-1-amine], the melting point lay in the range of 167 to 169 °C. In addition, the viability at 96 h, 50 µM in series [1] is 92%. In addition, halving of growth in series [2] (GI50) required 104 nM. For the same compound, the IC50 in series [3] is 104 ± 10 nM. Moreover, the 50% inhibitory concentration (IC50) in series [4] came to 102 ± 10 nM. Moreover, the IC50 in series [5] is 104 ± 10 nM. For the same compound, the IC50 in series [6] turned out to be 106 ± 10 nM.
In turn, `CCc1c(C(=O)NCC(c2ccccc2)c2c(-c3ccccc3)[nH]c3ccccc23)[nH]c2ccc(Cl)cc12` (stereo not drawn) [Compound Vc, 5-Chloro-3-ethyl-N-(2-phenyl-2-(2-phenyl-1H-indol-3-yl)ethyl)-1H-indole-2-carboxamide] registered a melting point of 110 to 112 °C. This compound also showed a viability at 96 h, 50 µM in series [1] of 91%. The compound further returned a GI50 in series [2] of 56 nM. For the same compound, the IC50 in series [3] was found to be 55 ± 5 nM. Also, in series [4], the IC50 amounted to 54 ± 5 nM. Further, in series [5], the IC50 turned out to be 56 ± 5 nM. Further, the IC50 in series [6] was found to be 57 ± 5 nM.
Take `C#Cc1cccc(Nc2ncnc3cc(OCCOC)c(OCCOC)cc23)c1` [Erlotinib, reference compound]: the IC50 turned out to be 30 ± 3 nM in series [3], 30 ± 3 nM in series [4], 30 ± 3 nM in series [5] and 40 ± 3 nM in series [6].
As to `Cc1c(C(=O)NCC(c2ccccc2)c2c(-c3ccccc3)[nH]c3ccccc23)[nH]c2ccc(Cl)cc12` (stereo not drawn) [Vb, 5-Chloro-3-methyl-N-(2-phenyl-2-(2-phenyl-1H-indol-3-yl)ethyl)-1H-indole-2-carboxamide], the melting point lay in the range of 135 to 137 °C. The compound also came in with a viability at 96 h, 50 µM in series [1] of 88%. Moreover, in series [2], the GI50 was found to be 59 nM. Also, in series [3], the IC50 turned out to be 59 ± 5 nM. The IC50 in series [4] was determined as 58 ± 5 nM. Moreover, the IC50 in series [5] was determined as 58 ± 5 nM. Also, the IC50 in series [6] was found to be 61 ± 6 nM.
The compound `CCc1c(C(=O)NCC(c2ccccc2)c2c(-c3ccccc3)[nH]c3ccccc23)[nH]c2ccc(Br)cc12` (stereo not drawn) [Vd, 5-Bromo-3-ethyl-N-(2-phenyl-2-(2-phenyl-1H-indol-3-yl)ethyl)-1H-indole-2-carboxamide] displayed a melting point of 130 to 132 °C. In series [1], this compound had a viability at 96 h, 50 µM of 89%. In addition, the concentration for 50% growth inhibition (GI50) in series [2] was 66 nM. In addition, in series [3], the IC50 is 66 ± 6 nM. For the same compound, the IC50 in series [4] came out at 64 ± 6 nM. Moreover, the IC50 in series [5] stood at 66 ± 6 nM. The IC50 in series [6] was found to be 68 ± 6 nM.
`CCc1c(C(=O)NCC(c2ccccc2)c2c(-c3ccccc3)[nH]c3ccccc23)oc2ccc(Cl)cc12` (stereo not drawn) [Vi, 5-Chloro-3-ethyl-N-(2-phenyl-2-(2-phenyl-1H-indol-3-yl)ethyl)benzofuran-2-carboxamide] had a melting point of 225 to 227 °C. Besides, in series [1], the viability at 96 h, 50 µM worked out at 89%. The GI50 in series [2] stood at 86 nM. Further, the IC50 in series [3] was determined as 85 ± 8 nM. The IC50 in series [4] was found to be 86 ± 8 nM. Also, the IC50 in series [5] was 85 ± 8 nM. Besides, in series [6], the IC50 stood at 89 ± 8 nM.

As a reminder, the viability is a per cent measure of how many cells are alive, often set against a control. Low values mean more harm to the cells, high ones less harm to the cells. A word on the GI50: it is the concentration that inhibits growth by half. Higher therefore signals less potent growth inhibition. By melting point is commonly meant the temperature, or range, at which the solid turns liquid. As usually defined, the IC50 is the concentration that inhibits the measured activity by half.
